System: Phytophthora infestans
Assay type: in vivo
Settings: tomato (Marmande), 48 h preventive, assessed 5 days after contamination; lower line = chlorothalonil dose (in mixture or alone)

N#Cc1c(Cl)c(Cl)c(Cl)c(C#N)c1Cl [Chlorothalonil, tetrachloroisophthalonitrile]
ED70, Practical doses for 70% efficacy: dose of chlorothalonil: 16.1 mg/L
ED90, Practical doses for 90% efficacy: dose of chlorothalonil: 36.7 mg/L

From patent publication US8343892B2 (priority 2003, dated 2013)
